target: T1, human LPA1 (Homo sapiens, UniProt Q92633); assay: LPA1 functional antagonist assay (LPA-induced calcium flux in CHO cells overexpressing human LPA1); format: cell-based; conditions: inhibition of calcium flux induced by 10 nM LPA, CHO cells overexpressing human LPA1; read-out: hLPA1 IC50
T1 construct: expressed in transfected cells; host or cells: Chinese hamster ovary (CHO) cells
Method in brief: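 Calcium flux was triggered by 10 nM LPA after 20 min room-temperature compound pre-incubation (final 0.08 nM to 5 μM, 0.5% DMSO) in human LPA1-overexpressing CHO cells carrying calcium dye. Buffer: HBSS with Ca/Mg, 20 mM HEPES, 0.1% fatty-acid-free BSA; IC50s from 4-parameter logistic fits.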

T1 sequence (Q92633 whole entry): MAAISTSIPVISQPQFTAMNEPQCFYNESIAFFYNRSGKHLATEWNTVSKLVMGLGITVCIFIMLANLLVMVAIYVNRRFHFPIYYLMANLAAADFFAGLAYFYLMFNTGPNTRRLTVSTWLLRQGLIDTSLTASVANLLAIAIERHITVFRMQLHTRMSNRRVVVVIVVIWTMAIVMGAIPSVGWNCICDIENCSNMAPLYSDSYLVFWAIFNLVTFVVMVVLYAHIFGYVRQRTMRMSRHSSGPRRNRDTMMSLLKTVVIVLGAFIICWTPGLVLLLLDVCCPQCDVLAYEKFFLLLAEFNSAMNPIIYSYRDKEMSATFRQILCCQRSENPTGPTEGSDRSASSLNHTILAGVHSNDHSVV

Point of comparison: `CCCCc1cn(Cc2c(-c3ccc(O[C@H]4CCC[C@H](C(=O)O)C4)c(CC)n3)nnn2C)nn1` [Example 96], IC50 9 nM. Against it:
- Cc1nc(-c2nnn(C)c2CNc2noc(CC3CC3)n2)c(F)cc1O[C@H]1CCC[C@H](C(=O)O)C1 [Example 282, (1S,3S)-3-((6-(5-(((5-(cyclopropylmethyl)-1,2,4-oxadiazol-3-yl)amino)methyl)-1-methyl-1H-1,2,3-triazol-4-yl)-5-fluoro-2-methylpyridin-3-yl)oxy)cyclohexane-1-carboxylic acid] — 26-fold higher, 236 nM
- CC[C@@H](OC)c1nc(NCc2c(-c3ccc(O[C@H]4CCC[C@H](C(=O)O)C4)c(C)n3)nnn2C)no1 (single isomer, unassigned) [Example 216] — 13-fold higher, 121 nM
- CCCc1nsc(NCc2c(-c3ccc(O[C@H]4CCC[C@H](C(=O)O)C4)c(C)n3)nnn2C)n1 [Example 104] — 12-fold higher, 109 nM
- Cc1nc(-c2nnn(C)c2Cc2nnn(CCC3CC3)n2)ccc1O[C@H]1CCC[C@H](C(=O)O)C1 [Example 400, (1S,3S)-3-{[6-(5-{[2-(2-cyclo-propylethyl)-2H-1,2,3,4-tetrazol-5-yl]methyl}-1-methyl-1H-1,2,3-triazol-4-yl)-2-methylpyridin-3-yl]oxy}cyclohexane-1-carboxylic acid] — 14-fold higher, 129 nM
- Cc1ccc(Oc2nnn(Cc3c(-c4ccc(O[C@H]5CCC[C@H](C(=O)O)C5)c(C)n4)nnn3C)n2)cc1 [Example 326, (1S,3S)-3-((2-methyl-6-(1-methyl-5-((5-(p-tolyloxy)-2H-tetrazol-2-yl)methyl)-1H-1,2,3-triazol-4-yl)pyridin-3-yl)oxy)cyclohexane-1-carboxylic acid] — 2.6-fold higher, 23 nM
- Cc1nc(-c2nnn(C)c2CNc2ncn(C3CCCCC3)n2)ccc1O[C@H]1CCC[C@H](C(=O)O)C1 [Example 36] — 16-fold higher, 147 nM
- Cc1nc(-c2nnn(C)c2Cn2nnc(OC3CCC3)n2)ccc1O[C@H]1CCC[C@H](C(=O)O)C1 [Example 333, (1S,3S)-3-[(6-{5-[(5-cyclobutoxy-2H-1,2,3,4-tetrazol-2-yl)methyl]-1-methyl-1H-1,2,3-triazol-4-yl}-2-methylpyridin-3-yl)oxy]cyclo-hexane-1-carboxylic acid] — 5.3-fold higher, 48 nM
- Cc1nc(-c2nnn(C)c2CNc2noc(CC3CC3(F)F)n2)ccc1O[C@H]1CCC[C@H](C(=O)O)C1 (some centres unmarked) [Example 196] — 3.1-fold higher, 28 nM
- Cc1nc(-c2nnn(C)c2CNc2noc(CCOC(C)C)n2)ccc1O[C@H]1CCC[C@H](C(=O)O)C1 [Example 214, (1S,3S)-3-((6-(5-(((5-(2-isopro-poxyethyl)-1,2,4-oxadiazol-3-yl)amino)methyl)-1-methyl-1H-1,2,3-triazol-4-yl)-2-methylpyridin-3-yl)oxy)cyclohexane-1-carboxylic acid] — 27-fold higher, 246 nM
- Cc1nc(-c2nnn(C)c2Cn2nnc(Cc3ccc(Cl)cc3)n2)ccc1O[C@H]1CCC[C@H](C(=O)O)C1 [Example 324, (1S,3S)-3-((6-(5-((5-(4-chloro-benzyl)-2H-tetrazol-2-yl)methyl)-1-methyl-1H-1,2,3-triazol-4-yl)-2-methylpyridin-3-yl)oxy)cyclo-hexane-1-carboxylic acid] — 4.2-fold higher, 38 nM
- Cc1nc(-c2nnn(C)c2CNc2ncn(-c3ccccc3)n2)ccc1O[C@H]1CCC[C@H](C(=O)O)C1 [Example 38] — 3.8-fold higher, 34 nM
- COC(C)c1nc(NCc2c(-c3ccc(O[C@H]4CCC[C@H](C(=O)O)C4)c(C)n3)nnn2C)no1 (mixture of isomers) [Example 223, (1S,3S)-3-((6-(5-(((5-(1-methoxy-ethyl)-1,2,4-oxadiazol-3-yl)amino)methyl)-1-methyl-1H-1,2,3-triazol-4-yl)-2-methylpyridin-3-yl)oxy)cyclo-hexane-1-carboxylic acid] — 52-fold higher, 466 nM
- Cc1nc(-c2nnn(C)c2Cn2nnc(CC3CCCC3)n2)ccc1O[C@H]1CCC[C@H](C(=O)O)C1 [Example 331, (1S,3S)-3-((6-(5-((5-(cyclopentyl-methyl)-2H-tetrazol-2-yl)methyl)-1-methyl-1H-1,2,3-triazol-4-yl)-2-methylpyridin-3-yl)oxy)cyclohexane-1-carboxylic acid] — within 1.5-fold, 7 nM
- Cc1nc(-c2nnn(C)c2Cn2nnnc2S(C)(=O)=O)ccc1O[C@H]1CCC[C@H](C(=O)O)C1 [Example 350, (1S,3S)-3-[(6-{5-[(5-methanesul-fonyl-1H-1,2,3,4-tetrazol-1-yl)methyl]-1-methyl-1H-1,2,3-triazol-4-yl}-2-methylpyridin-3-yl)oxy]cyclohexane-1-carboxylic acid] — 140-fold higher, 1240 nM
- Cc1nc(-c2nnn(C)c2COc2nnn(CC(C)C)n2)ccc1O[C@H]1CCC[C@H](C(=O)O)C1 [Example 136, (1S,3S)-3-((6-(5-(((2-Isobutyl-2H-tetrazol-5-yl)oxy)methyl)-1-methyl-1H-1,2,3-triazol-4-yl)-2-methylpyridin-3-yl)oxy)cyclohexane-1-carboxylic acid] — 2.2-fold higher, 20 nM
- Cc1nc(-c2nnn(C)c2CNc2cc(C(C)C)no2)ccc1O[C@H]1CCC[C@H](C(=O)O)C1 [Example 168] — 9.3-fold higher, 84 nM
- Cc1nc(-c2nnn(C)c2CNc2nsc(-c3ccccc3)n2)ccc1O[C@H]1CCC[C@H](C(=O)O)C1 [Example 6] — 2-fold higher, 18 nM
- Cc1nc(-c2nnn(C)c2Cc2noc(C(C)C)n2)ccc1O[C@H]1CCC[C@H](C(=O)O)C1 [Example 230, (1S,3S)-3-((6-(5-((5-isopropyl-1,2,4-oxadiazol-3-yl)methyl)-1-methyl-1H-1,2,3-triazol-4-yl)-2-methylpyridin-3-yl)oxy)cyclohexane-1-carboxylic acid] — 11-fold higher, 95 nM
- Cc1nc(-c2nnn(C)c2CNc2nnc(CCC(C)C)o2)ccc1O[C@H]1CCC[C@H](C(=O)O)C1 [Example 55] — 5-fold higher, 45 nM
- Cc1nc(-c2nnn(C)c2Cc2nnc(C3CCCC3)o2)ccc1O[C@H]1CCC[C@H](C(=O)O)C1 [Example 75] — 32-fold higher, 289 nM
- Cc1nc(-c2nnn(C)c2CNc2nc(C(F)(F)F)ns2)ccc1O[C@H]1CCC[C@H](C(=O)O)C1 [Example 119] — 6.7-fold higher, 60 nM
- Cc1nc(-c2nnn(C)c2Cn2nnnc2CC(C)C)ccc1O[C@H]1CCC[C@H](C(=O)O)C1 [Example 328, (1S,3S)-3-((6-(5-((5-isobutyl-1H-tetrazol-1-yl)methyl)-1-methyl-1H-1,2,3-triazol-4-yl)-2-methylpyridin-3-yl)oxy)cyclohexane-1-carboxylic acid] — 13-fold higher, 118 nM
- Cc1nc(-c2nnn(C)c2Cn2ccc(Cc3ccccc3)n2)ccc1O[C@H]1CCC[C@H](C(=O)O)C1 [Example 317, (1S,3S)-3-((6-(5-((3-benzyl-1H-pyrazol-1-yl)methyl)-1-methyl-1H-1,2,3-triazol-4-yl)-2-methylpyridin-3-yl)oxy)cyclo-hexane-1-carboxylic acid] — 7-fold higher, 63 nM
- Cc1nc(-c2nnn(C)c2COc2nnn(CC3CC3)n2)ccc1O[C@H]1CCC[C@H](C(=O)O)C1 [Example 143] — 2.7-fold higher, 24 nM
- Cc1nc(-c2nnn(C)c2CNc2noc(CCC(C)F)n2)ccc1O[C@H]1CCC[C@H](C(=O)O)C1 (some centres unmarked) [Example 167] — 1.8-fold higher, 16 nM
- Cc1nc(-c2nnn(C)c2CNc2ncn(-c3cc(F)cc(F)c3)n2)ccc1O[C@H]1CCC[C@H](C(=O)O)C1 [Example 211, (1 S,3 S)-3-((6-(5-(((1-(3,5-difluorophenyl)-1H-1,2,4-triazol-3-yl)amino)methyl)-1-methyl-1H-1,2,3-triazol-4-yl)-2-methylpyridin-3-yl)oxy)cyclohexane-1-carboxylic acid] — 5-fold higher, 45 nM
- Cc1nc(-c2nnn(C)c2CNc2nc(C(C)(C)C)no2)ccc1O[C@H]1CCC[C@H](C(=O)O)C1 [Example 60] — 53-fold higher, 478 nM
- Cc1nc(-c2nnn(C)c2Cc2noc(CCC3CCC3)n2)ccc1O[C@H]1CCC[C@H](C(=O)O)C1 [Example 232, (1S,3S)-3-((6-(5-((5-(2-cyclobutylethyl)-1,2,4-oxadiazol-3-yl)methyl)-1-methyl-1H-1,2,3-triazol-4-yl)-2-methylpyridin-3-yl)oxy)cyclohexane-1-carboxylic acid] — within 1.5-fold, 8 nM
- Cc1nc(-c2nnn(C)c2CNc2noc(CC3CC3(F)F)n2)ccc1O[C@H]1CCC[C@H](C(=O)O)C1 (some centres unmarked) [Example 195] — 2.8-fold higher, 25 nM
- Cc1nc(-c2nnn(C)c2COc2noc(C(C)C)n2)ccc1O[C@H]1CCC[C@H](C(=O)O)C1 [Example 130] — 2.9-fold higher, 26 nM
- Cc1nc(-c2nnn(C)c2COc2ncn(CC3CC3)n2)ccc1O[C@H]1CCC[C@H](C(=O)O)C1 [Example 140] — 6.3-fold higher, 57 nM
- Cc1nc(-c2nnn(C)c2CNc2noc(C3CCOC3)n2)ccc1O[C@H]1CCC[C@H](C(=O)O)C1 (some centres unmarked) [Example 151] — 13-fold higher, 114 nM
- Cc1nc(-c2nnn(C)c2CNc2nc(C(C)C)no2)ccc1O[C@H]1CCC[C@H](C(=O)O)C1 [Example 59] — 55-fold higher, 495 nM

same assay, conditions: read-out: hLPA1 IC50

Point of comparison: `Cc1nc(-c2nnn(C)c2CNc2nnnn2Cc2ccccc2)ccc1O[C@H]1CCC[C@H](C(=O)O)C1` [Example 390, (1S,3S)-3-((6-(5-(((1-benzyl-1H-tetrazol-5-yl)amino)methyl)-1-methyl-1H-1,2,3-triazol-4-yl)-2-methylpyridin-3-yl)oxy)cyclo-hexane-1-carboxylic acid], IC50 375 nM. Against it:
- Cc1nc(-c2nnn(C)c2Cc2nnn(CCC3CC3)n2)ccc1O[C@H]1CCC[C@H](C(=O)O)C1 [Example 400, (1S,3S)-3-{[6-(5-{[2-(2-cyclo-propylethyl)-2H-1,2,3,4-tetrazol-5-yl]methyl}-1-methyl-1H-1,2,3-triazol-4-yl)-2-methylpyridin-3-yl]oxy}cyclohexane-1-carboxylic acid] — 2.9-fold lower, 128 nM
- CCc1nc(-c2nnn(C)c2CNc2nc(C3CCC3)ns2)ccc1O[C@H]1CCC[C@H](C(=O)O)C1 [Example 396, (1S,3S)-3-((6-(5-(((3-cyclobutyl-1,2,4-thiadiazol-5-yl)amino)methyl)-1-methyl-1H-1,2,3-triazol-4-yl)-2-ethylpyridin-3-yl)oxy)cyclohexane-1-carboxylic acid] — 11-fold lower, 33 nM
- CCCc1nsc(NCc2c(-c3ccc(O[C@H]4CCC[C@H](C(=O)O)C4)c(CC)n3)nnn2C)n1 [Example 399, (1S,3S)-3-((2-ethyl-6-(1-methyl-5-(((3-propyl-1,2,4-thiadiazol-5-yl)amino)methyl)-1H-1,2,3-triazol-4-yl)pyridin-3-yl)oxy)cyclohexane-1-carboxylic acid] — 5.1-fold lower, 73 nM

From patent publication US11319315B2, “Cyclohexyl acid triazole azoles as LPA antagonists” (BRISTOL-MYERS SQUIBB COMPANY, priority 2017, dated 2022)
